Results reported in US9988390B2, “Pyrimidone derivatives and their use in the treatment, amelioration or prevention of a viral disease” (F. Hoffmann-La Roche AG, priority 2015, dated 2018).

Tested on: influenza A virus (A/WSN/33 NanoLuc reporter virus) in A549 cells
Assay: microbe, parasite or virus in culture
Format: cell-based
Details: A549, 24 h, read-out: IC50 values of viral replication inhibition in a cell-based Luciferase Reporter Assay (LRA)

CC(C)N1CC(C2c3ccccc3CCc3ccccc32)n2c(CO)nc(=O)c(O)c2C1=O (stereo not drawn) [Ia-48, 4-(6,11-Dihydro-5H-dibenzo[2,1-b:1′,2′-e][7]annulen-11-yl)-9-hydroxy-6-(hydroxymethyl)-2-isopropyl-3,4-dihydropyrazino[1,2-c]pyrimidine-1,8-dione]
IC50: 20 nM

CNc1nc(=O)c(O)c2n1[C@@H](C(c1ccccc1)c1ccccc1)CN(C(C)C)C2=O [Ia-49, (4S)-4-Benzhydryl-9-hydroxy-2-isopropyl-6-(methylamino)-3,4-dihydropyrazino[1,2-c]pyrimidine-1,8-dione]
IC50: 880 nM

CC(C)N1C[C@H](C(c2ccccc2)c2ccccc2)n2c(-n3ccnc3)nc(=O)c(O)c2C1=O [Ia-43, (4S)-4-Benzhydryl-9-hydroxy-6-imidazol-1-yl-2-isopropyl-3,4-dihydropyrazino[1,2-c]pyrimidine-1,8-dione]
IC50: 495 nM
